Reference: patent US20080306002A1, “Combination Therapy for Preventing Angiogenesis” (The General Hospital Corporation, priority 2005, published 2008)

Tests used:
[1] = system: VEGF; details: plus chemotherapy vs chemotherapy alone; cited from earlier work
[2] = system: IL-8; test: IL-8 mRNA (qRT-PCR) in parental DLD-1 cells given t-butyl hydroperoxide; assay type: cell-based
Experimental: Real-time PCR assay. RNA was extracted using the RNeasy kit (Qiagen) and quantitative reverse-transcription PCR was performed using the SuperScript III platinum Two-Step qRT-PCR Kit (Invitrogen). Primer sequences for VEGF, IL-8, and 18S RNA are available upon request. A fluorogenic SYBR Green and MJ research detection system were used for real time quantification.
Hydrogen peroxide studies. Measurement of H2O2 was performed using the Amplex Red Hydrogen peroxide Assay Kit and the CM-H2DCFDA reagent (both Molecular Probe). Cells were exposed to hypoxia for 10 h, and then culture medium was switched to Krebs-Ringer phosphate buffer^30 containing 100 μM Amplex Red reagent and 0.2 U/mL HRP. After additional incubation in hypoxia for 1 h, fluorescence was measured in 96-well plates by Spectra MAX GEMINI XS microplate fluorometer (Molecure Devices). Cells were also incubated with 10 μM CM-H2DCFDA for 30 minutes in RPMI without phenol red. Fluorescence was measured in 96 well plates and values were normalized to cell number. 20 or 40 μM t-butyl hydroperoxide (t-BH, Sigma) was added to the culture media of DLD-1 cells every 30 minutes for 6 hours, and IL-8 mRNA levels were measured by qRT-PCR.

[3] = system: IL8 promoter; test: IL-8 promoter reporter assay in DLD-1^HIF-kd cells in hypoxia; assay type: cell-based
Experimental: (§1) Cell lines. DLD-1 and Caco2 cells (ATCC) were stably transfected with HIF-1α siRNA constructs (pSuper.retro, OligoEngine), pSR.HIF-1α1470 or pSR.HIF-1α2192^10. […] In a pilot xenograft study, growth, microvascular density, VEGF and IL-8 levels were similar between a pSR.HIF-1α1470 clone and pSR.HIF-1α2192 clone. […] Transient transfections were performed using Lipofectamine 2000 (Invitrogen).
(§2) Transfections and Reporter Assays. 0.1-0.2 μg reporter constructs were co-transfected with 2 ng of pRL-CMV (Promega) and luciferase activity was measured with the Dual Luciferase Reporter Assay System (Promega). pRL-null, a promoter-less Renilla construct, was used when cells were co-transfected with a K-ras expression vector^29. The relative luciferase activity was calculated as Firefly/Renilla luciferase activity. The level of ‘hypoxic induction’ was the ratio between the relative luciferase activity in hypoxia to that in normoxia.

[4] = system: IL8 promoter; test: IL-8 promoter reporter assay in Caco2 cells with KRAS^V12 and hypoxia; assay type: cell-based
Experimental: as §1, §2

[5] = system: NF-κB; test: NF-κB reporter assay in DLD-1^HIF-kd cells in hypoxia; assay type: cell-based
Experimental: Cell lines. DLD-1 and Caco2 cells (ATCC) were stably transfected with HIF-1α siRNA constructs (pSuper.retro, OligoEngine), pSR.HIF-1α1470 or pSR.HIF-1α2192^10. […] Transient transfections were performed using Lipofectamine 2000 (Invitrogen).
as §2

Sequence of VEGF (P15692 207-311 limits assumed): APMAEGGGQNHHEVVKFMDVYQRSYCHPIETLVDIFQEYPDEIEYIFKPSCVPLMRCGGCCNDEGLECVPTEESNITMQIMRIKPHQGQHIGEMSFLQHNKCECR

## Avastin: A monoclonal antibody to VEGF; recombinant humanized antibody (Genentech)
[1]
  survival: greater
  time to progression: highly significant longer

## Cc1ccc(S(=O)(=O)/C=C/C#N)cc1 [BAY 11-7082]
[2]; 5 μM BAY 11-7082
  induction of IL-8 by t-butyl hydroperoxide: inhibited
[3]
  hypoxic induction of the IL8 promoter: significantly down-regulated
[4]
  induction of the IL8 promoter by hypoxia and KRAS^V12: blocked

## c1ccc2c(c1)[I+]c1ccccc1-2 [diphenylene iodonium]
[5]
  induction of NF-κB promoter activity by hypoxia: strongly blocked

## C=C(C)[C@H]1Cc2c(ccc3c2O[C@@H]2COc4cc(OC)c(OC)cc4[C@@H]2C3=O)O1 [rotenone]
[5]
  induction of NF-κB promoter activity by hypoxia: strongly blocked

## CC(C)(C)OO [t-butyl hydroperoxide]
[2]; exogenous administration
  production of IL-8: stimulated
